Measurements from patent US11285156B2, “Substituted piperazines as KRAS G12C inhibitors” (Amgen Inc., priority 2018, dated 2022).
Like-named read-outs stand apart in the source and are kept apart here.

Columns and labels:
[1] = biological target: GDP-bound KRAS protein (aa 1-169), containing both G12C and C118A amino acid substitutions (Homo sapiens (Human), UniProt P01116, C118A/G12C); experiment: Coupled nucleotide exchange assay (SOS-mediated nucleotide exchange, AlphaScreen); type: biochemical; conditions: read-out: Coupled exchange IC50 (5 min; μM); 5 min compound pre-incubation
[2] = test system: Phosphorylation of ERK1/2 in MIA PaCa-2 cells; experiment: Phospho-ERK1/2 MSD assay in MIA PaCa-2 cells; type: cell-based; conditions: read-out: p-ERK IC50 (2 h, MiaPaCa-2; μM), 2 h compound treatment, MIA PaCa-2 cells, EGF stimulated
In short: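 Phospho-ERK1/2 measured by MSD electrochemiluminescence kit in RIPA lysates of MIA PaCa-2 cells. Cells were treated with compound titrations for 2 or 4 h at 37 °C, 5% CO2, followed by a 10 min pulse of 10 ng/mL EGF.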

[3] = test system: Phosphorylation of ERK1/2 in A549 cells; experiment: Phospho-ERK1/2 MSD assay in A549 cells; type: cell-based; conditions: read-out: p-ERK IC50 (2 h, A549; μM), 2 h compound treatment, A549 cells, EGF stimulated
In short: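 Dose-response treatment lasted 2 or 4 h in RPMI 1640/10% FBS at 37 °C. EGF-stimulated (10 ng/mL, 10 min) ERK1/2 phosphorylation was then quantified in cell lysates with a Meso Scale Discovery phospho-ERK1/2 assay.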

Sequence of GDP-bound KRAS protein (aa 1-169), containing both G12C and C118A amino acid substitutions (P01116 other isoform, or with tags, fused parts or gaps G12C/C118A): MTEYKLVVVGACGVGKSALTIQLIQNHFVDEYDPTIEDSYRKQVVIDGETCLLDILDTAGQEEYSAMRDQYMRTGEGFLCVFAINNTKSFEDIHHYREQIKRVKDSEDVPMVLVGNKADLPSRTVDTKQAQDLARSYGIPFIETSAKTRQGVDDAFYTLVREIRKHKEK

Row | SMILES | IC50 [1] | IC50 ([2]; Homo sapiens, MIA PaCa-2, 2 h) | IC50 ([3]; Homo sapiens, A549, 2 h) | IC50 [2] | IC50 [3]
1 | C=CC(=O)N1C[C@H](C)N(c2nc(=O)n(-c3c(C)cc([S+](C)[O-])cc3C(C)C)c3nc(-c4ccccc4C)c(Cl)cc23)C[C@H]1C (stereo partly drawn) [Example 213, 4-((2S,5R)-4-Acryloyl-2,5-dimethylpiperazin-1-yl)-6-chloro-1-(2-isopropyl-6-methyl-4-(methylsulfinyl)phenyl)-7-(o-tolyl)pyrido[2,3-d]pyrimidin-2(1H)-one] | 0.182 µM | 0.104 µM | > 7.5 µM | – | –
2 | C=CC(=O)N1C[C@H](C)N(c2nc(=O)n(-c3c(C)cc(CN4CCCC4)nc3C(C)C)c3nc(-c4ccccc4F)c(Cl)cc23)C[C@H]1C [Example 121-2, 6-Chloro-4-[(2S,5R)-2,5-dimethyl-4-prop-2-enoyl-piperazin-1-yl]-7-(2-fluorophenyl)-1-[2-isopropyl-4-methyl-6-(pyrrolidin-1-ylmethyl)-3-pyridyl]pyrido[2,3-d]pyrimidin-2-one] | 0.096 µM | 0.081 µM | > 7.5 µM | – | –
3 | C=CC(=O)N1C[C@H](C)N(c2nc(=O)n(-c3c(C)ccnc3C(C)C)c3nc(-c4c(F)cccc4NC(=O)C(F)F)c(Cl)cc23)C[C@H]1C (atropisomer, axis not shown; (M)) [Example 129-10, (M)-N-[2-[6-Chloro-4-[(2S,5R)-2,5-dimethyl-4-prop-2-enoyl-piperazin-1-yl]-1-(2-isopropyl-4-methyl-3-pyridyl)-2-oxo-pyrido[2,3-d]pyrimidin-7-yl]-3-fluoro-phenyl]-2,2-difluoro-acetamide] | 0.041 µM | 0.049 µM | > 7.5 µM | – | –
4 | C=CC(=O)N1C[C@H](C)N(c2nc(=O)n3c4nc(c(Cl)cc24)-c2ccccc2C/C=C/Cc2cccc(C(C)C)c2-3)C[C@H]1C (atropisomer, axis not shown; (M)) [Example 146-2, (M)-(9Z)-19-Chloro-22-((2S,5R)-2,5-dimethyl-4-(2-propenoyl)-1-piperazinyl)-3-(2-propanyl)-1,23,26-triazapentacyclo[16.6.2.0~2,7~.0~12,17~.0~21,25~]hexacosa-2,4,6,9,12,14,16,18,20,22,25-undecaen-24-one, (M)-19-chloro-22-((2S,5R)-2,5-dimethyl-4-(2-propenoyl)-1-piperazinyl)-3-(2-propanyl)-1,23,26-triazapentacyclo[16.6.2.0~2,7~.0~12,17~.0~21,25~]hexacosa-2,4,6,9,12,14,16,18,20,22,25-undecaen-24-one] | 0.028 µM | 0.038 µM | 6.51 µM | – | –
5 | C=CC(=O)N1C[C@H](C)N(c2nc(=O)n(-c3c(C(C)C)cccc3S(C)(=O)=O)c3nc(-c4ccccc4F)c(Cl)cc23)C[C@H]1C (single isomer, unassigned) [Example 208-2] | 0.117 µM | – | – | 0.106 µM | > 7.5 µM
6 | C=CC(=O)N1C[C@H](C)N(c2nc(=O)n(-c3c(C)ccnc3C(C)C)c3nc(-c4ccsc4C)c(Cl)cc23)C[C@H]1C (atropisomer, axis not shown; (M)) [Example 92-3, (M)-6-Chloro-4-[(2S,5R)-2,5-dimethyl-4-prop-2-enoyl-piperazin-1-yl]-1-(2-isopropyl-4-methyl-3-pyridyl)-7-(2-methyl-3-thienyl)pyrido[2,3-d]pyrimidin-2-one] | 0.095 µM | 0.094 µM | > 7.5 µM | – | –
7 | C=CC(=O)N1C[C@H](C)N(c2nc(=O)n(-c3c(C)ccnc3C(C)C)c3nc(-c4c(F)cccc4NC(=O)CC)c(Cl)cc23)C[C@H]1C (atropisomer, axis not shown; (M)) [Example 129-4, (M)-N-[2-[6-Chloro-4-[(2S,5R)-2,5-dimethyl-4-prop-2-enoyl-piperazin-1-yl]-1-(2-isopropyl-4-methyl-3-pyridyl)-2-oxo-pyrido[2,3-d]pyrimidin-7-yl]-3-fluoro-phenyl]propanamide] | 0.053 µM | 0.058 µM | > 7.5 µM | – | –
8 | C=CC(=O)N1C[C@H](C)N(c2nc(=O)n(-c3c(CC)ncnc3C(C)C)c3nc(-c4ccccc4C)c(Cl)cc23)C[C@H]1C (single isomer, unassigned) [Example 109-2-1] | 0.059 µM | – | – | 0.065 µM | > 7.5 µM
